Patent US20020058699A1, “Methods for treating seizure disorders by inhibiting MAPK pathway activation” (priority 2000, published 2002)
“Also recorded” adds a separate entry of the source. Values belong to the compound of their own block, whether it stands above or below them.

Experiments:
[1] = system: kainate-induced limbic motor seizures; assay: Kainate-induced seizures scored by Racine Classification Scale; assay type: in vivo, rat
Experimental: Male Sprague-Dawley rats (125-200 gm) were administered kainate at a dose of 15 mg/kg IP while the control animals (CTL) received vehicle IP (saline). Seizures were scored independently by two investigators in accordance with the Racine Classification Scale (0=no seizures, 1=mouth/face movements; 2=head nodding; 3=forelimb clonus; 4=rearing; and 5=rearing and falling). [Ben-Ari et al., Devl. Brain. Res. 14:284-288 (1985)]. Seizure score is shown plotted against time in the kainate-treated and control (vehicle-injected) animals.
(§1) Adult rats were injected IP with SL327 100 mg/kg or vehicle alone (PEG400/ETOH) were administered 30 minutes later with kainate or vehicle (saline). Animals were sacrificed at following 1 hour of kainate-induced seizures or three hours after kainate injection. Hippocampal regions CA1, CA3, and dentate were removed and processed for Western blotting, as described in Example 1.
Animals were treated as described in Example 2 except that SL327 was administered at 400 mg/kg.

ERK MAPK (p42 and p44) = assay: Hippocampal ERK activation by Western blotting (phospho-ERK and total ERK); assay type: in vivo, rat; settings: for ERK activation (phospho-ERK): kainate+vehicle (PEG400/ETOH); for basal ERK phosphorylation: CTL+SL327 400 mg/kg; for kainate-induced ERK phosphorylation: KA+SL327 400 mg/kg; for basal ERK activation (phospho-ERK): control+SL327 100 mg/kg; for kainate-induced ERK activation (phospho-ERK): kainate+SL327 100 mg/kg
Experimental: Hippocampal ERK activation was quantified by Western blotting using the method described by Atkins el al.[Atkins et al., Nat. Neurosci. 1:602-609 (1998)] with minor modifications. In brief, animals were sacrificed at 30 minutes and after 1 hr of class 5 seizures (150 min post injection) and the hippocampus was dissected. CA1, CA3 and dentate subregions were dissected in ice-cold saline and homogenates prepared by extracting with denaturing detergent. Protein concentrations were deteremined by Bradford Assay. Homogenates were subjected to Western blotting (immunoblots) prepared by routine methods (for example, see Harlow and Lane, in ANTIBODIES: A LABORATORY MANUAL, Cold Spring Harbor Laboratory Press (1988)). Blotted protein was detected using antibodies to total ERK (1:10,000) and dually phosphorylated, activated ERK MAPK (p42 and p44)(1:1000)(Cell Signaling). Enzyme activity associated with a secondary antibody was detected by incubation with Enhanced Chemiluminescent Reagent (BioRad Laboratories, Hercules Calif.) as substrate. Immunoreactivity of the total ERK and dually phosphorylated activated ERK MAPK in the blot was quantified using densitometry (Scion) for representative blots of p42 and analyzed by Student's t-test.
as §1
ERK phosphorylation in brain tissue was evaluated in kainate challenged animals pretreated with 400 mg/kg SL327. […] CA1, CA3, and dentate were dissected and processed for Western blotting as described in Example 1. […] Tukey's Multiple Comparison Test: ***p<0.001.

Kv4.2 [2] = assay: Phospho-Kv4.2 Western blotting of hippocampal membrane fractions from kainate and control animals; assay type: in vivo, rat
Experimental: Western blotting using the phospho-Kv4.2 antibody to the ERK sites was performed on membrane fractions from kainate and control animals pretreated with SL327 as described in Example 1. See also Adams et al., J. Neurochem. 75:2277-2287 (2000), and Anderson et al., J. Biol. Chem. 275:5337-5346 (2000). Animals were sacrificed 30 minutes after kainate (before overt seizures) and 1 hour after continuous motor seizures.

CREB = assay: Phospho-CREB Western blots of hippocampus; assay type: in vivo, rat
Experimental: Western blots prepared using CA1, CA3 and dentate regions of the hippocampus from rats following kainate-induced status epilepticus (KA, n=3) or vehicle alone (CTL, n=3) were performed using phospho-CREB antibodies. […] There is a small but significant decrease in CREB phosphorylation in CA3 (CA3 80.4±9.0%; *p<0.05, ***p<0.001).
Hippocampal region CA1 was removed 2 hours after rats were treated IP with the MEK inhibitor, SL327 (100 mg/kg) or vehicle alone. Western blots were developed using the phosho-CREB antibody.

phospho-ERK = assay: Phospho-ERK immunohistochemistry of hippocampus; assay type: in vivo, rat; settings: 150 min after kainate; stratum oriens of CA1, stratum radiatum of CA1 and CA3, dentate hilus, mossy fiber inputs to CA3
Experimental: Immunohistochemical analysis of stained neural tissue was performed as described by Varga et al., Learn Mem 7;321-322 (2000), with the following modifications. In this case, kainate and control animals were sacrificed at 150 minutes following injection, while in stage 5 seizures for about 1 hour. After tissue fixation, 20-micron sections were thaw-mounted and incubated in 0.3% H2O2 in methanol for 30 minutes at RT, washed in PBST (PBS containing 0.2% Triton X-100), and blocked in PBST containing 5% normal goat serum (NGS). Sections were then incubated with the phospho-ERK antibody (1:100) overnight, washed with PBST, and incubated with a 1:200 dilution of goat anti-rabbit biotinylated secondary antibody for 30 minutes at RT. After washing and incubation with a 1:50 dilution of ABC reagent (Pierce) for 30 minutes at RT, sections were again washed in PBST and then stained using metal enhanced DAB. Sections were then rinsed, cleared, and coverslipped using a xylene based medium.

phospho-Kv4.2 = assay: Phospho-Kv4.2 immunohistochemistry of hippocampus; assay type: in vivo, rat; settings: after kainate-induced seizures; stratum oriens and radiatum of CA1 and CA3, dentate hilus
Experimental: [insert*: see symbol after “antibody”] Immunohistochemistry using phospho-Kv4.2 antibody (phospho-Kv4.2) to the ERK sites was performed as described in Example 1 for the same animal groups. […] These areas include stratum oriens and stratum radiatum of areas CA1 and CA3 and the dentate hilus.

[3] = system: transient K+ currents composed of Kv4.2 subunits; assay: Transient K+ currents recorded in distal dendrites of hippocampal area CA1 slices; assay type: cell-based
Experimental: MEK inhibitor PD098059 ([…]) or vehicle was applied to the hippocampal CA1 slices at least 20 minutes before recording conductance.
The functional consequence of MAPK inhibition on transient K^+currents composed of Kv4.2 subunits as recorded in distal dendrites of hippocampal area CA1 was evaluated. The MEK inhibitor PD098059 ([…]) or vehicle was applied to the hippocampal CA1 slices at least 20 min prior to recording conductance.

[4] = Behavioral observation of animals treated with SL327; assay type: in vivo, rat
Kv4.2 [5] = settings: U0126 20 μM, rat hippocampal slices, CA1
Experimental: Rat hippocampal slices were bathed in vehicle with MEK inhibitor U0126 (20 μM) or vehicle alone (CTL).

[6] = vehicle-treated kainate group (no SL327)
[7] = SL327 100 mg/kg IP 30 min before kainate

Structure (SMILES): C=C(C)[C@H]1CN[C@H](C(=O)O)[C@H]1CC(=O)O [kainate]
seizure class (Racine Classification Scale) ([1]; kainate 15 mg/kg IP, male Sprague-Dawley rats, within 90 min, persisted until 150 min): all of the animals studied developed class 5 seizures
animals progressed to Class 3 seizures [1, 6]: 1/9
animals progressed to Class 5 seizures [1, 6]: 6/9
animals that developed limbic motor seizures [1, 6]: 78%
animals with no evidence of motor seizures [1, 6]: 2/9
phospho-ERK2 immunoreactivity (ERK MAPK (p42 and p44); CA1, 30 min after kainate 15 mg/kg IP, prior to behavioral seizures): 218.9 (±40.66) % CTL
phospho-ERK2 immunoreactivity (ERK MAPK (p42 and p44); CA1, 150 min after kainate, class 5 seizures): 165.5±16.5 % of control
phospho-ERK2 immunoreactivity (ERK MAPK (p42 and p44); CA3, 30 min after kainate 15 mg/kg IP): 206.80 (±31.61) % CTL
phospho-ERK2 immunoreactivity (ERK MAPK (p42 and p44); CA3, 150 min after kainate, class 5 seizures): 153.1±10.3 % of control
phospho-ERK2 immunoreactivity (ERK MAPK (p42 and p44); dentate, 30 min after kainate 15 mg/kg IP): 305.50 (±58.26) % CTL
phospho-ERK2 immunoreactivity (ERK MAPK (p42 and p44); dentate, 150 min after kainate, class 5 seizures): 224.8±34.1 % of control
total MAPK immunoreactivity (ERK MAPK (p42 and p44); kainate versus control, total MAPK antibody): No difference
ERK activation (phospho-ERK) (ERK MAPK (p42 and p44); CA1): 215.40 (±24.19) % control
ERK activation (phospho-ERK) (ERK MAPK (p42 and p44); CA3): 196.60 (±6.69) % control
ERK activation (phospho-ERK) (ERK MAPK (p42 and p44); dentate): 219.60 (±8.82) % control
ERK phosphorylation of Kv4.2 (Kv4.2 [2]; CA1, 30 min after kainate injection): 48.80±6.95 % control
ERK phosphorylation of Kv4.2 (Kv4.2 [2]; CA3, 30 min after kainate injection): 128.70±29.12 % control
phospho-Kv4.2 (Kv4.2 [2]; KA+Vehicle, CA1, after 1 hr limbic motor seizures): 535.5±84.1 % of CTL+Vehicle
phospho-Kv4.2 (Kv4.2 [2]; KA+Vehicle, CA3, after 1 hr limbic motor seizures): 442.0±57.0 % of CTL+Vehicle
phospho-Kv4.2 (Kv4.2 [2]; KA+Vehicle, dentate, after 1 hr limbic motor seizures): 1177.0±361.1 % of CTL+Vehicle
ERK phosphorylation of Kv4.2 (Kv4.2 [2]; dentate, 30 min after kainate injection): 109.10±11.09 % control
CREB phosphorylation (CREB; CA1, kainate-induced status epilepticus): 162.9±29.4 % of control
CREB phosphorylation (CREB; CA3, kainate-induced status epilepticus): 80.4±9.0%
CREB phosphorylation (CREB; dentate, kainate-induced status epilepticus): 138.0±4.4 % of control
phospho-ERK staining (phospho-ERK): increased greatly
phospho-Kv4.2 staining (phospho-Kv4.2): increase in phospho-Kv4.2

locomotor activity ([4]; SL327 400 mg/kg, some animals in kainate and control groups): increase in locomotor activity
Structure (SMILES): N#CC(=C(N)Sc1ccc(N)cc1)c1ccccc1C(F)(F)F [SL327, Z- and E-α-[amino[(4-aminophenyl)thio]methylene]-2-(trifluoromethyl)benzeneacetonitrile]
animals with class 5 seizures [1, 7]: 100%
block of kainate-induced seizures [1, 7]: did not block kainate-induced seizures
block of kainate-induced limbic motor seizures ([1]; SL327 400 mg/kg IP 30 min before kainate 15 mg/kg): blocks limbic motor status epilepticus; also recorded: effectively blocked kainate-induced limbic motor seizures
basal ERK phosphorylation (ERK MAPK (p42 and p44); CA1): 8.4±7.2 % of CTL+Vehicle
basal ERK phosphorylation (ERK MAPK (p42 and p44); CA3): 2.9±0.5 % of CTL+Vehicle
basal ERK phosphorylation (ERK MAPK (p42 and p44); dentate): 3.1±0.8 % of CTL+Vehicle
kainate-induced ERK phosphorylation (ERK MAPK (p42 and p44); CA1): 31.5±10.5 % of CTL+Vehicle
kainate-induced ERK phosphorylation (ERK MAPK (p42 and p44); CA3): 26.2±10.8 % of CTL+Vehicle
kainate-induced ERK phosphorylation (ERK MAPK (p42 and p44); dentate): 24.7±9.9 % of CTL+Vehicle
total ERK1/ERK2 MAPK protein (ERK MAPK (p42 and p44); SL327 400 mg/kg pretreatment, total ERK antibody): no changes in total protein
basal ERK activation (phospho-ERK) (ERK MAPK (p42 and p44); CA1): 46.05 (±15.89) % control
basal ERK activation (phospho-ERK) (ERK MAPK (p42 and p44); CA3): 37.51 (±9.59) % control
basal ERK activation (phospho-ERK) (ERK MAPK (p42 and p44); dentate): 32.16 (±11.46) % control
kainate-induced ERK activation (phospho-ERK) (ERK MAPK (p42 and p44); CA1): 220.70 (±35.80) % control
kainate-induced ERK activation (phospho-ERK) (ERK MAPK (p42 and p44); CA3): 143.60 (±22.26) % control
kainate-induced ERK activation (phospho-ERK) (ERK MAPK (p42 and p44); dentate): 195.6 (±18.58) % control
unspecified quantity, % of control ([3]; n=2, Control 85.55%): 61.83 % of control
phospho-Kv4.2 (Kv4.2 [2]; KA+SL327 400 mg/kg, CA1): 152.8±41.4 % of CTL+SL327
phospho-Kv4.2 (Kv4.2 [2]; KA+SL327 400 mg/kg, CA3): 170.8±16.6 % of CTL+SL327
phospho-Kv4.2 (Kv4.2 [2]; KA+SL327 400 mg/kg, dentate): 66.6±10.36 % of CTL+SL327
activated CREB (phospho-CREB) (CREB; CA1, 2 hours after SL327 100 mg/kg IP): reduces the amount of activated CREB
sedation ([4]; SL327 400 mg/kg, all groups): modest degree of apparent sedation
lethargy or other behavioral changes ([4]; control animals, SL327 100 mg/kg): No obvious lethargy or other behavioral changes

Structure (SMILES): COc1cccc(-c2cc(=O)c3ccccc3o2)c1N [PD098059, 2-(2′-amino-3′-methoxyphenyl)-oxanaphthalen-4-one]
effect on conductance / voltage-dependence of K+ currents in dendrites ([3]; MEK inhibitor applied to hippocampal CA1 slices at least 20 min before recording): hyperpolarizing shift; also recorded: Conductance with inhibitor was increased compared to controls at almost all voltages applied
V½ of steady-state activation, after compound ([3]; as printed: after compound, PD098059 50 μM applied at least 20 min before recording, n=10): −2 mV
V½ of steady-state activation, before compound ([3]; as printed: before compound, n=7): −9 mV

Structure (SMILES): N#CC(=C(/N)Sc1ccccc1N)/C(C#N)=C(\N)Sc1ccccc1N [U0126]
detection by MAPK-Kv4.2 phospho-selective antibody (basal Kv4.2 phosphorylation) (Kv4.2 [5]): 61.14%±8.74 % of control
